Activity calls are given as the source filed them.
Tests used:
Hexokinase = biological target: T1, Hexokinase (Trypanosoma brucei, UniProt Q38C41); assay: Confirmation assay for inhibitors of Trypanosoma brucei hexokinase 1-Analogue-first series. [Related pubchem assays (depositor defined):AID1430, AID1632, AID2516, AID2560, AID2579, AID2600, AID449725, AID492951]; format: functional
T1 sequence (Q38C41 whole entry): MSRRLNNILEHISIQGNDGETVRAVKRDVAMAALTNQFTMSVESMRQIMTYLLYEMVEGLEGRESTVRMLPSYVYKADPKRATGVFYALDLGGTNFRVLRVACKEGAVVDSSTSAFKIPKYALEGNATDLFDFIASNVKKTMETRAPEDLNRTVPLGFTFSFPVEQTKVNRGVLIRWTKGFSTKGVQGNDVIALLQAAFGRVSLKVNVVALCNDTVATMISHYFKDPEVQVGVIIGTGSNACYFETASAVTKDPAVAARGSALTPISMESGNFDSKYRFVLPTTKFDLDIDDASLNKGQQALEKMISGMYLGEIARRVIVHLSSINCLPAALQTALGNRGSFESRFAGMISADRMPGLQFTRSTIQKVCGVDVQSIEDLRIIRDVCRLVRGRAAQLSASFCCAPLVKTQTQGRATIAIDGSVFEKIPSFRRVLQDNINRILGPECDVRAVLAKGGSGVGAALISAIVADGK

[1] = biological target: T2, Neuropeptide Y receptor type 2 (Homo sapiens, UniProt P49146); format: functional, cell-based;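 note: HEK293 cells expressing the receptor and a CNG channel; stimulus was NPY near EC95 followed by isoproterenol to raise cAMP; antagonist potency measured as restoring cAMP signal that NPY suppresses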
T2 sequence (P49146 whole entry): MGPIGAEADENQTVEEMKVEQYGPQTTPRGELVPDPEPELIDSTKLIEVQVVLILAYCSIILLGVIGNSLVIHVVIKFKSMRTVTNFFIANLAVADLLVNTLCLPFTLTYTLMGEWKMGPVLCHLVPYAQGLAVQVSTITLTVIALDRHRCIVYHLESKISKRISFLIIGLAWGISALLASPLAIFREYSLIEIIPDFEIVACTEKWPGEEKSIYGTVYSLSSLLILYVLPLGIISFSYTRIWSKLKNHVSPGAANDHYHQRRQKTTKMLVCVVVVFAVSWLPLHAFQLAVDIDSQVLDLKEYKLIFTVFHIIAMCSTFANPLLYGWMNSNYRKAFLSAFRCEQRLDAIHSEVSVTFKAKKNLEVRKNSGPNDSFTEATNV

[2] = biological target: T3, Neuropeptide Y receptor type 1 (Homo sapiens, UniProt P25929); format: functional;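 note: HEK293 cells with a CNG channel challenged with NPY then isoproterenol; potency as antagonist that reverses NPY suppression of cAMP signal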
T3 sequence (P25929 whole entry): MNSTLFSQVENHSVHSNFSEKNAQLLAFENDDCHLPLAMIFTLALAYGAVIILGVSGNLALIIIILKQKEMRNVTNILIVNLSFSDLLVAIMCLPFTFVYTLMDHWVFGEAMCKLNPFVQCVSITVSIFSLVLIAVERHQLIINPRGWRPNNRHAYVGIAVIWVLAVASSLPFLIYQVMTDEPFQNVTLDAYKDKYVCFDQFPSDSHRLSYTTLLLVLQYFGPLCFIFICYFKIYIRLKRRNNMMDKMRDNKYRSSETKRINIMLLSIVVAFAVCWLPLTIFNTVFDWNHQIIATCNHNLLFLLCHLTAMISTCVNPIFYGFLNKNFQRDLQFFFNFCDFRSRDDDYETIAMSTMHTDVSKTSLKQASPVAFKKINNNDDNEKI

[3] = Jurkat T cell cytotoxicity, dose response, cytotoxicity control for P. falciparum gametocyte viability project, luminescence (AID 1117277); format: functional, cell-based;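 note: potency reflects loss of cellular ATP meaning fewer viable cells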
[4] = P. falciparum late gametocyte killing, dose response, luminescence (AID 1117278); format: functional, cell-based;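 note: gametocytes exposed to compound for 24 hours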
Prothrombin = Prothrombin (Homo sapiens, UniProt P00734); assay: Thrombin 1536 HTS Dose Response Confirmation. [Related pubchem assays: 1046 (Thrombin 1536 HTS; hits were confirmed in this assay)]; format: functional
[5] = biological target: Peroxisome proliferator-activated receptor gamma/Nuclear receptor coactivator 1 (Homo sapiens, UniProt P37231); format: functional;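 note: agonist potency as compounds enhance coactivator SRC-1 recruitment to PPARgamma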
[6] = biological target: Peroxisome proliferator-activated receptor gamma/Nuclear receptor coactivator 2 (Homo sapiens, UniProt P37231); format: functional;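 note: agonist potency for raising coactivator recruitment to the receptor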
Sequence of Peroxisome proliferator-activated receptor gamma/Nuclear receptor coactivator 2 (P37231 whole entry): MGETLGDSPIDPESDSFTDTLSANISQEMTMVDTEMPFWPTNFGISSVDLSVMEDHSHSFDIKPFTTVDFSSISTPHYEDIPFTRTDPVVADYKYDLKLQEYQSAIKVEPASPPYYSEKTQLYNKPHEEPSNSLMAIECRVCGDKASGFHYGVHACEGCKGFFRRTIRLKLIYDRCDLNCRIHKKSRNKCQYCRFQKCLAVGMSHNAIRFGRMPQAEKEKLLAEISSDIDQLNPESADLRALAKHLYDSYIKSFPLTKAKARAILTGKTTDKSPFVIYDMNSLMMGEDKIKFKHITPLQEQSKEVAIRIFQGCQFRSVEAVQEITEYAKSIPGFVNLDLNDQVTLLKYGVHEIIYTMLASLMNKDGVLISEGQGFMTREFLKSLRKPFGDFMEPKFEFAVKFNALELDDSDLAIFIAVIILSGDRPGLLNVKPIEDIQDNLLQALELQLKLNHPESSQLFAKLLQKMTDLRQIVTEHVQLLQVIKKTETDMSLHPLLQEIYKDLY
Sequence of Peroxisome proliferator-activated receptor gamma/Nuclear receptor coactivator 2 (Q15596 whole entry, further chain): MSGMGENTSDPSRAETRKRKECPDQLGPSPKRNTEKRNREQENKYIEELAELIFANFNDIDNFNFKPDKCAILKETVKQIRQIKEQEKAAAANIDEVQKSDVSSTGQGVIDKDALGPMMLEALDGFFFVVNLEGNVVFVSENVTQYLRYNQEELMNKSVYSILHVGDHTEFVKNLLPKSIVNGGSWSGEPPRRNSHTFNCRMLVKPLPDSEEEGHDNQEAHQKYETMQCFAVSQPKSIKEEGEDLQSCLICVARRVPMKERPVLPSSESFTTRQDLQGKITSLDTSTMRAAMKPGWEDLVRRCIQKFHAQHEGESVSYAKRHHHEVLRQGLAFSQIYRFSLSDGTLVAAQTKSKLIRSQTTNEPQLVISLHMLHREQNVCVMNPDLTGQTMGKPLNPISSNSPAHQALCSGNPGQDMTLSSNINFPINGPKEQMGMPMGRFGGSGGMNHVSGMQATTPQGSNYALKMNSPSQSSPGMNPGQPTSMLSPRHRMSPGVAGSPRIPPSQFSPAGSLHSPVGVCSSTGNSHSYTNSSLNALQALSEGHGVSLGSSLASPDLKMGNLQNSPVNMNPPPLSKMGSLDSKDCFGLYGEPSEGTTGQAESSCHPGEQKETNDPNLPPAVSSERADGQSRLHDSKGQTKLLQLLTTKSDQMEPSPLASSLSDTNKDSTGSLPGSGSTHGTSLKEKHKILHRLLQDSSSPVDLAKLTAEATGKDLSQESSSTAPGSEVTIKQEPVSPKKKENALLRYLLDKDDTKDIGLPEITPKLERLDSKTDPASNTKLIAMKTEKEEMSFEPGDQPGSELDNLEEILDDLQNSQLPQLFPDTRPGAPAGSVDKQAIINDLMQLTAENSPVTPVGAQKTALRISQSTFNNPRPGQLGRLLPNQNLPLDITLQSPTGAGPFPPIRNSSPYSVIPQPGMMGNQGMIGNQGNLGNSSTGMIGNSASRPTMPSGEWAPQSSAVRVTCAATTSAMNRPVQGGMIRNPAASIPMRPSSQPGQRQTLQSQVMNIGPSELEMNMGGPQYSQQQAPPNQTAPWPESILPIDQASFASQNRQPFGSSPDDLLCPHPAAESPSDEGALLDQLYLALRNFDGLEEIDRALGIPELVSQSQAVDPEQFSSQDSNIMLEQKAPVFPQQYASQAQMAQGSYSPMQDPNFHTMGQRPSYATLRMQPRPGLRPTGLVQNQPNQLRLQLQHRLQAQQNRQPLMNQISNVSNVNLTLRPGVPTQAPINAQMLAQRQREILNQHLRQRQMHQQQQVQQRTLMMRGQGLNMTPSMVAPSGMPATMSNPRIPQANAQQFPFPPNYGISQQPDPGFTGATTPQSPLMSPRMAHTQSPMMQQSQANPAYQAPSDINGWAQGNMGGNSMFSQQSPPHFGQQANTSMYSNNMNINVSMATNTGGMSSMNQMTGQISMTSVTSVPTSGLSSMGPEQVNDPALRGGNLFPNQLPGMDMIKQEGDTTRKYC

[7] = biological target: Peroxisome proliferator-activated receptor gamma/Nuclear receptor coactivator 3 (Homo sapiens, UniProt P37231); format: functional;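 note: agonist potency for raising coactivator recruitment to the receptor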
Sequence of Peroxisome proliferator-activated receptor gamma/Nuclear receptor coactivator 3 (P37231 whole entry): as the sequence (P37231 whole entry) above
Sequence of Peroxisome proliferator-activated receptor gamma/Nuclear receptor coactivator 3 (Q9Y6Q9 whole entry, further chain): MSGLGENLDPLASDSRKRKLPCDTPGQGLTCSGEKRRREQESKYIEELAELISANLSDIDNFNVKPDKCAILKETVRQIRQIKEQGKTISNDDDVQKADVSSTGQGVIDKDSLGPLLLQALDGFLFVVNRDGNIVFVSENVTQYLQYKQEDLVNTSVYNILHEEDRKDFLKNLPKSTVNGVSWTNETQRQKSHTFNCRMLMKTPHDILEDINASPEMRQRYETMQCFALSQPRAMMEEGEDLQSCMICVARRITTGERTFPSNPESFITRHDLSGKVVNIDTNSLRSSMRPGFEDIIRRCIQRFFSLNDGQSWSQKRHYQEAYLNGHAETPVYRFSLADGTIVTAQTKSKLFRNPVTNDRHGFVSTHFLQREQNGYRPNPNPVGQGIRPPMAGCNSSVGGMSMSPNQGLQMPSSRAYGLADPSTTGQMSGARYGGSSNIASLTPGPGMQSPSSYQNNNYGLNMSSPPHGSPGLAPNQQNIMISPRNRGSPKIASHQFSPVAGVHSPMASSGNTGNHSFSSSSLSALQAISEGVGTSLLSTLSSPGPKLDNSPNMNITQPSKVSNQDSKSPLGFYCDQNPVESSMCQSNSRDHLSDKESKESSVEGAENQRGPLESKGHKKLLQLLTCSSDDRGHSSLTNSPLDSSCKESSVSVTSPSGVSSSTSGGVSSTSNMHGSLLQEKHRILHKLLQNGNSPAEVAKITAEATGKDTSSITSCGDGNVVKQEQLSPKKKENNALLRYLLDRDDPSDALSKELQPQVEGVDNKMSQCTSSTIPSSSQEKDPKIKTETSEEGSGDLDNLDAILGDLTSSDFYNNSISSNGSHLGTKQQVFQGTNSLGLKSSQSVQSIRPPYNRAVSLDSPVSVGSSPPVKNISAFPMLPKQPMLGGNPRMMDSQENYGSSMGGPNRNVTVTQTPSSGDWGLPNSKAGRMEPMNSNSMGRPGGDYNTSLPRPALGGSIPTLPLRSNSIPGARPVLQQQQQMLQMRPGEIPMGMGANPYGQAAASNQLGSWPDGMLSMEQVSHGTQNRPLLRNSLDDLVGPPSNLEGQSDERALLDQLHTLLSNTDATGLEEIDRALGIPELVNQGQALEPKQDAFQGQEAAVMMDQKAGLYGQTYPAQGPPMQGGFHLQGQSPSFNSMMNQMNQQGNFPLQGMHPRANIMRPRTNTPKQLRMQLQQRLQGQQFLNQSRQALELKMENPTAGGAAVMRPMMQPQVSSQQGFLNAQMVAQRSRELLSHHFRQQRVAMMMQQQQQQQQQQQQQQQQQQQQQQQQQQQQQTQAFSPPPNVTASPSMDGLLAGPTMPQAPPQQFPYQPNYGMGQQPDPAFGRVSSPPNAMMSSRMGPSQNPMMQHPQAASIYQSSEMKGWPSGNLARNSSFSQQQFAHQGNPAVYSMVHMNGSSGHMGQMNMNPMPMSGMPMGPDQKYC

Vero = assay: host cell cytotoxicity of antiviral hits, dose response, cytotoxicity control for West Nile virus antiviral project, secondary assay (AID 1650); format: functional, Chlorocebus sabaeus; details: Chlorocebus sabaeus, Vero
Cytochrome P450 3A4 = Cytochrome P450 3A4 (Homo sapiens, UniProt P08684);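 note: CYP3A4 tested as one member of a cytochrome P450 panel screen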
[8] = HeLa 2N DNA content increase, dose response, cell-based, IC50 (AID 1117349); format: functional
[9] = HeLa 4N DNA content increase, dose response, cell-based, IC50 (AID 1117351); format: functional
Large T antigen = Large T antigen (Simian virus 40, UniProt P03070); format: functional, Betapolyomavirus macacae;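 note: Confirmatory-stage PubChem screen for compounds that inhibit SV40 T antigen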
Sequence of Large T antigen (P03070 whole entry): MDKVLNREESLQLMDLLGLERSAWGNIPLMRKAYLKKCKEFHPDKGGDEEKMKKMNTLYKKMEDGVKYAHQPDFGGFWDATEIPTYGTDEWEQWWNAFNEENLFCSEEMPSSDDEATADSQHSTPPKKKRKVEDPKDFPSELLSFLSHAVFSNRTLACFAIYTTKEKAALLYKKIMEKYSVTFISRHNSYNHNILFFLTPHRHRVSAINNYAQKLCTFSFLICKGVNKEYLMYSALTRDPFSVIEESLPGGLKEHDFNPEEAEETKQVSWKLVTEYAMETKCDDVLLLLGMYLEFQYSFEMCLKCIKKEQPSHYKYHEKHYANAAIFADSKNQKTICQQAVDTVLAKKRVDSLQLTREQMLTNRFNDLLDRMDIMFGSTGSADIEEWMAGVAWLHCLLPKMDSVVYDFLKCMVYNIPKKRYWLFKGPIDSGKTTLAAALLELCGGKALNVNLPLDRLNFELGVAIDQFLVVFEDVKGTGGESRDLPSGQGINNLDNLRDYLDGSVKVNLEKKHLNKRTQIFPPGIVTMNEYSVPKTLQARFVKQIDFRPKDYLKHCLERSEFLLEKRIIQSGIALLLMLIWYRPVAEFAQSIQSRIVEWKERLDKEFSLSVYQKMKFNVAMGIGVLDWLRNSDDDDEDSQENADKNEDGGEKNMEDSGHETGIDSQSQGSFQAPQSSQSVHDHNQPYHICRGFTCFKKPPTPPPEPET

[10] = growth suppression of PTEN-null colon cells, dose response, cell-based, HCT116 PTEN knockout (AID 1047); format: functional;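 note: HCT116 colon tumor cells with PTEN knocked out; cells exposed to compound for 60 hours before readout; potency for loss of cell viability measured by luminescence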
[11] = growth suppression of beta-catenin-knockout colon cells, dose response, cell-based, HCT116, human colon tumor (AID 1045); format: functional;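 note: HCT116 colon tumor cells with beta catenin knocked out; cells exposed to compound for 60 hours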
INS1 = assay: beta cell apoptosis inhibitors, cytokine rescue, dose response, luminescence, retest (AID 449756); format: functional, cell-based; details: Rattus norvegicus;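 note: cell death triggered by IL-1 beta plus TNF-alpha plus IFN-gamma mixture; protective hits raise ATP signal compared with cytokine alone wells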
[12] = Luminescence Cell-Based Dose Retest to Confirm Inhibitors of Cancer Stem Cells. [Related pubchem assays (depositor defined):AID2717, AID2721]; format: functional, Homo sapiens; details: Homo sapiens
[13] = biological target: T4, Tyrosine-protein phosphatase non-receptor type 7 (Homo sapiens, UniProt P35236); format: functional
T4 sequence (P35236 whole entry): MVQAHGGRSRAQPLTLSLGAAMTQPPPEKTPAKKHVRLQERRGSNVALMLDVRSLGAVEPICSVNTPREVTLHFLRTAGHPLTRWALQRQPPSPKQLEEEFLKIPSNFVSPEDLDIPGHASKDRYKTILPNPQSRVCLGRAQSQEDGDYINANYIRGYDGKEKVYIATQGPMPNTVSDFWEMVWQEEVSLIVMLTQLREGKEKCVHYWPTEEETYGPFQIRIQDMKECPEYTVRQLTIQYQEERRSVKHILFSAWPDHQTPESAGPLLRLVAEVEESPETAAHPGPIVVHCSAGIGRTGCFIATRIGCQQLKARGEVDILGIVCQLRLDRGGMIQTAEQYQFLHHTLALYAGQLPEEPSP

[14] = biological target: Glyceraldehyde-3-phosphate dehydrogenase (Homo sapiens, UniProt P04406)
Sequence of Glyceraldehyde-3-phosphate dehydrogenase (P04406 whole entry): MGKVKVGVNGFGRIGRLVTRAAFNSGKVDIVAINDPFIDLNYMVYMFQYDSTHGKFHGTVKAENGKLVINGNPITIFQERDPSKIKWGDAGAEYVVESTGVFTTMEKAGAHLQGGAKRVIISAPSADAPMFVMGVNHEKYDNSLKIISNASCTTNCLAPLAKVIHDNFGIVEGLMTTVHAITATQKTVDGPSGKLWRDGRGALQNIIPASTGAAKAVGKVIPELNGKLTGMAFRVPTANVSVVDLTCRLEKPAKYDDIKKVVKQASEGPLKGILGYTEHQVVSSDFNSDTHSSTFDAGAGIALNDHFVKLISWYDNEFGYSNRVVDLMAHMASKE

[15] = biological target: T5, Dual specificity protein phosphatase 6 (Rattus norvegicus, UniProt Q64346)
T5 sequence (Q64346 whole entry): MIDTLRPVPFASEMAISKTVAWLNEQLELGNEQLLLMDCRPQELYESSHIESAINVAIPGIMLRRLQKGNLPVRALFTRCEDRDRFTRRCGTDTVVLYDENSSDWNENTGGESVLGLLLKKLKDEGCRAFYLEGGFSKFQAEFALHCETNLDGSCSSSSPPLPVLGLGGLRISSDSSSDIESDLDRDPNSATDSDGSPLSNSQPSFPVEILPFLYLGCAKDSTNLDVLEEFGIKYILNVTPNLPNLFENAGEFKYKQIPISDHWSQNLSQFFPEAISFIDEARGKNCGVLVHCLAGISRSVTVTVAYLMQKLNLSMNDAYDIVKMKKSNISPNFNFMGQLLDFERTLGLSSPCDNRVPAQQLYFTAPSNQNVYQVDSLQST

[16] = biological target: T5, Dual specificity protein phosphatase 6; format: functional
[17] = Concentration-dependent survival of SW480 colon cancer line, luminescence detection with CellTiter-Glo, half-maximal inhibitory concentration (AID 1117338); format: functional
[18] = RKO cell viability reduction, dose response, CellTiter-Glo luminescence (AID 1117322); format: functional
[19] = cytotoxicity toward HCT116 cells – cell-based, CellTiter-Glo luminescence, IC50, dose response (AID 1117332); format: functional; details: HCT-116
[20] = cytotoxicity toward HT-29 cells – cell-based, CellTiter-Glo luminescence, IC50, dose response (AID 1117330); format: functional
[21] = cytotoxicity toward Colo320 cells – cell-based, CellTiter-Glo luminescence, IC50, dose response (AID 1117334); format: functional; details: COLO 320
[22] = CellTiter-Glo luminescent dose response of DLD-1 viability loss (AID 1117352); format: functional
[23] = HCT116 cell viability decrease, GSK3B pretreatment – CellTiter-Glo, IC50, dose response (AID 1117339); format: functional; details: HCT-116
[24] = biological target: T6, Corticotropin-releasing factor receptor 2/Corticotropin-releasing factor-binding protein (Homo sapiens, UniProt P24387+Q13324); assay: activators of CRF receptor 2 with binding protein – uHTS hits, confirmation (AID 602473); format: functional; details: read-out: EC50_Mean
T6 sequence (Q13324 whole entry): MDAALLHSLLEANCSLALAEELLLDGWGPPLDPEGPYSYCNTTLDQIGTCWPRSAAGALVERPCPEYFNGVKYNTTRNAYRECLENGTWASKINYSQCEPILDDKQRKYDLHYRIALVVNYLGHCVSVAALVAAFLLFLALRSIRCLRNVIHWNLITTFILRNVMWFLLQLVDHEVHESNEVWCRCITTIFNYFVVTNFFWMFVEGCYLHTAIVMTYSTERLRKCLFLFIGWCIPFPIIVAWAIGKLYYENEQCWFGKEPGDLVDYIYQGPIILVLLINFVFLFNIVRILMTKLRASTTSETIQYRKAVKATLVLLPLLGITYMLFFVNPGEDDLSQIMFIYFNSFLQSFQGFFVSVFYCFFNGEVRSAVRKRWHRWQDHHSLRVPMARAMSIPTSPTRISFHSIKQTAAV
T6 sequence (P24387 whole entry): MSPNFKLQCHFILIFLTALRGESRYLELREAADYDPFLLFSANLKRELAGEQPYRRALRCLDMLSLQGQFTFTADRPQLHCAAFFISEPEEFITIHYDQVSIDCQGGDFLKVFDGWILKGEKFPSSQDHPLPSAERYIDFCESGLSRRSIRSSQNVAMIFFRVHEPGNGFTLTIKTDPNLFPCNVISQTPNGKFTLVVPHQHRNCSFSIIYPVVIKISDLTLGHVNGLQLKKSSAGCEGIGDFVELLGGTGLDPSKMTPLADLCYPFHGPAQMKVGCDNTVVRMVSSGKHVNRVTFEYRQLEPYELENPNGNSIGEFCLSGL

[25] = biological target: T6, Corticotropin-releasing factor receptor 2/Corticotropin-releasing factor-binding protein; assay: Dose Response confirmation of uHTS hits for small molecule antagonists of the CRF-binding protein and CRF-R2 receptor complex.; format: functional; details: read-out: IC50_Mean

For `COc1ccc(C(=O)Nc2cc(Cl)ccc2C(=O)O)cn1`, the IC50 (Hexokinase) was > 25 µM (inactive).

With `Nc1c2c(nc3sc4c(c13)CCCC4)CCCCCC2` the IC50 [1] was > 35 µM (not active) and the IC50 [2] was 26.7 µM (not active).

In the case of `O=C(Cn1c(C(F)(F)F)nc2ccccc21)Nc1ccccc1C(=O)O`, the IC50 [3] was > 83.3 µM (inactive) and the IC50 [4] was > 109 µM (inactive).

In the case of `COc1ccccc1C(=O)n1nc(-c2ccccc2)nc1NCc1ccco1`, the IC50 (Prothrombin) was 0.223 µM (active).

In the case of `O=C(O)c1ccc(Cl)cc1NC(=O)C1CCOCC1`, the IC50 (Hexokinase) was > 25 µM (inactive).

With `COc1ccccc1C(=O)Nc1cccc(-c2cn3ccsc3n2)c1` the EC50 [5] was > 79.4 µM (not active), the EC50 [6] was > 79.4 µM (not active) and the EC50 [7] was > 79.4 µM (not active).

In the case of `CCC(=O)NC(=Nc1ccc(OC)cc1)Nc1nc(C)cc(C)n1`, the IC50 (Prothrombin) was 1.23 µM (active).

With `Cc1nc(SCC(=O)c2ccc(Cl)s2)c2oc3ccccc3c2n1` the EC50 [5] was > 79.4 µM (not active), the CC50 (Vero) was 23.6 µM (active) and the EC50 [6] was > 79.4 µM (not active). The EC50 [7] was > 79.4 µM (not active) and the AC50 (Cytochrome P450 3A4) was 2.82 µM (inconclusive).

For `CC(C)(C)c1ccc(C(=O)Nc2cc(Cl)ccc2C(=O)O)cc1`, the IC50 (Hexokinase) was 2.12 µM (active).

With `COc1ccc(OC)c(S(=O)(=O)Nc2c(C)cccc2C)c1` the IC50 [3] was > 83.3 µM (inactive) and the IC50 [4] was > 109 µM (inactive).

In the case of `Cc1ccc(S(=O)(=O)N2CCN(Cc3ccccc3)CC2)c(C)c1N(C)S(=O)(=O)c1ccccc1`, the IC50 [3] was > 83.3 µM (inactive) and the IC50 [4] was > 109 µM (inactive).

For `O=c1[nH]c(=O)n([C@H]2C[C@H](O)[C@@H](CO)O2)cc1I` [IDOXURIDINE], the IC50 [8] was > 10 µM (inactive) and the IC50 [9] was > 10 µM (inactive).

In the case of `COc1cc(SC#N)ccc1/N=C/c1c(C)[nH]n(-c2ccc(C)cc2)c1=O`, the EC50 [5] was > 79.4 µM (not active), the IC50 (Large T antigen) was 21.2 µM (active) and the EC50 [10] was 56.6 µM (active). For the same compound, the EC50 [6] was > 79.4 µM (not active), the EC50 [11] was 107 µM (active) and the EC50 [7] was > 79.4 µM (not active). The AC50 (INS1) was 3.6 µM (active) and the AC50 [12] was 2.9 µM (active).

For `CCn1c(=O)n(Cc2ccc([N+](=O)[O-])cc2)c(=O)n([C@@H](Cc2ccccc2)C(=O)O)c1=O`, the IC50 [13] was > 100 µM (not active), the IC50 [14] was > 100 µM (not active) and the IC50 [15] was > 100 µM (inactive). For the same compound, the IC50 [16] was > 100 µM (inactive).

For `Cc1cc(-c2ccc(N=Nc3c(S(=O)(=O)O)cc4cc(S(=O)(=O)O)cc(N)c4c3O)c(C)c2)ccc1N=Nc1c(S(=O)(=O)O)cc2cc(S(=O)(=O)O)cc(N)c2c1O`, the IC50 [17] was > 20 µM (inactive), the IC50 [18] was > 20 µM (inactive) and the IC50 [19] was > 20 µM (inactive). The IC50 [20] was > 20 µM (inactive), the IC50 [21] was > 20 µM (inactive) and the IC50 [22] was > 20 µM (inactive). The IC50 [23] was > 20 µM (inactive).

With `O=C(CSCc1ccc(Cl)cc1)N/N=C/c1c(Cl)cccc1Cl` the IC50 [1] was 6.47 µM (active) and the IC50 [2] was 8.3 µM (active).

In the case of `COc1ccc(C(=O)n2nc(-c3ccco3)nc2N)cc1`, the IC50 (Prothrombin) was 0.828 µM (active).

For `C/C(=N\OC(=O)c1ccc(OC(C)C)cc1)c1ccc(C)c(C)c1`, the EC50 [24] was > 53 µM (inactive), the IC50 [1] was 7.94 µM (active) and the IC50 [2] was 7.08 µM (active). For the same compound, the IC50 [25] was > 47.1 µM (inactive).

— ChEMBL document CHEMBL1201862, “PubChem BioAssay data set” (2004)
